Data reported in patent US20260224582A1, “Heterobicyclic amides as inhibitors of CD38” (Cerevance, Inc., priority 2022, published 2026).
pIC50: −log10 of the molar value.

What was measured:
Recombinant human CD38 = target: T1, Recombinant human CD38 (Homo sapiens, UniProt P28907); assay: Human CD38 hydrolase assay (fluorescence-based, ε-NAD substrate); format: biochemical; conditions: recombinant human CD38 0.8 nM, 4 μM ε-NAD, 30 min preincubation at 25° C.
T1 sequence (P28907 1-300): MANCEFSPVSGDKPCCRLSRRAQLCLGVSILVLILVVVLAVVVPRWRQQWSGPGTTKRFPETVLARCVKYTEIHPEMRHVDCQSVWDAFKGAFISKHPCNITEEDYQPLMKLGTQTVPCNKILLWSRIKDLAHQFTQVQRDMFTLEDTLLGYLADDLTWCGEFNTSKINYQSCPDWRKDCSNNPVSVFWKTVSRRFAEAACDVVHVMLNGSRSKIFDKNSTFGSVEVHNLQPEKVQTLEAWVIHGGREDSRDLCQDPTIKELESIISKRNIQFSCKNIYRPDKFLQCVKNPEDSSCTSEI
Method: The ability of test compounds to inhibit human CD38 hydrolase activity was measured in a fluorescence-based assay using non-physiological NAD^+ substrate analogue 1,N^6-etheno NAD^+ (ε-NAD). Recombinant human CD38 (0.8 nM) was preincubated with test compounds in 384-well black microplates for 30 min at 25° C. in PBS (—Ca^2+/Mg^2+) containing 0.005% BSA (pH 7.4). CD38 hydrolase activity was initiated by addition of 4 μM ε-NAD, which yields the fluorescent product 1,N^6-etheno ADP-ribose. Formation of fluorescent product was followed using ClarioStar Plus (BMG) microplate reader by reading fluorescence (excitation λ=300 nm; emission λ=410 nm) at two time points, one immediately after substrate addition (t=0) and one at 10 min (t=10). Data was analysed by subtracting the values detected at t=0 from t=10 to correct for variation in baseline fluorescence. Fluorescence values were converted to percent inhibition using the average of high signal (CD38 and ε-NAD) and low signal (CD38 and ε-NAD in the presence of a tool CD38 inhibitor) control wells. IC50 values were determined from a 10-point, half log concentration response curve with a four-parameter logistic equation.

Recombinant mouse CD38 = target: T2, Recombinant mouse CD38 (Mus musculus, UniProt P56528); assay: Mouse CD38 hydrolase assay (fluorescence-based, ε-NAD substrate); format: biochemical; conditions: recombinant mouse CD38 0.4 nM, 12 μM ε-NAD, 30 min preincubation at 25° C.
T2 sequence (P56528 1-304): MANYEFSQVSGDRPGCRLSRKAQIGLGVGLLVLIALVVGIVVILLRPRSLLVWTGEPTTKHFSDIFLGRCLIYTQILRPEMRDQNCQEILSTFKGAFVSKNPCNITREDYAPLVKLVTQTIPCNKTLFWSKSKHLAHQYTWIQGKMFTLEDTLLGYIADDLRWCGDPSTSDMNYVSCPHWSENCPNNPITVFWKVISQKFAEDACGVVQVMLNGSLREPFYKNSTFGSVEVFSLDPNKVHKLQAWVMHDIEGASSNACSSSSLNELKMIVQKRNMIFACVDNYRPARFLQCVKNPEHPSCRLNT
Method: The ability of test compounds to inhibit mouse CD38 hydrolase activity was measured in a fluorescence-based assay using non-physiological NAD^+ substrate analogue 1,N^6-etheno NAD^+ (&-NAD). Recombinant mouse CD38 (0.4 nM) was preincubated with test compounds in 384-well black microplates for 30 min at 25° C. in PBS (—Ca^2+/Mg^2+) containing 0.005% BSA (pH 7.4). CD38 hydrolase activity was initiated by addition of 12 μM ε-NAD, which yields the fluorescent product 1,N^6-etheno ADP-ribose. Formation of fluorescent product was followed using ClarioStar Plus (BMG) microplate reader by reading fluorescence (excitation λ=300 nm; emission λ=410 nm) at two time points, one immediately after substrate addition (t=0) and one at 6 min (t=6).
Data was analysed by subtracting the values detected at t=0 from t=6 to correct for variation in baseline fluorescence. Fluorescence values were converted to percent inhibition using the average of high signal (CD38 and ε-NAD) and low signal (CD38 and ε-NAD in the presence of a tool CD38 inhibitor) control wells. IC50 values were determined from a 10-point, halflog concentration response curve with a four-parameter logistic equation.

Row | Compound | pIC50 (Recombinant human CD38) | pIC50 (Recombinant mouse CD38)
1 | O=C(N[C@H]1CC[C@H](N2CC[C@@H](O)C2)CC1)c1nc(-n2ccnc2)nn2cccc12 [Example 27, N-((1R,4r)-4-((R)-3-hydroxypyrrolidin-1-yl)cyclohexyl)-2-(1H-imidazol-1-yl)pyrrolo[2,1-f][1,2,4]triazine-4-carboxamide] | ≥ 7.40 | ≥ 7.40
2 | O=C(N[C@H]1CC[C@H](NCC(F)F)CC1)c1cn2ccnc2c(-n2ccnc2)n1 [Example 38, N-((1r,4r)-4-((2,2-difluoroethyl)amino)cyclohexyl)-8-(1H-imidazol-1-yl) imidazo[1,2-a]pyrazine-6-carboxamide] | ≥ 6.00 | ≥ 7.40
3 | O=C(N[C@H]1CC[C@H](N2CC[C@H](F)C2)CC1)c1nc(-n2ccnc2)nc2ncccc12 [Example 32, N-((1S,4r)-4-((S)-3-fluoropyrrolidin-1-yl)cyclohexyl)-2-(1H-imidazol-1-yl)pyrido[2,3-d]pyrimidine-4-carboxamide] | ≥ 7.00 | ≥ 7.40
4 | O=C(N[C@H]1CC[C@H](N2CC[C@H](F)C2)CC1)c1cn2ncnc2c(-n2ccnc2)n1 [Example 25, N-((1S,4r)-4-((S)-3-fluoropyrrolidin-1-yl)cyclohexyl)-8-(1H-imidazol-1-yl)-[1,2,4]triazolo[1,5-a]pyrazine-6-carboxamide] | ≥ 6.00 | ≥ 7.40
5 | O=C(N[C@H]1CC[C@@H](N2CCSCC2)CC1)c1cn2ncnc2c(-n2ccnc2)n1 [Example 55, 8-(1H-imidazol-1-yl)-N-((1s,4s)-4-thiomorpholinocyclohexyl)-[1,2,4]triazolo[1,5-a]pyrazine-6-carboxamide] | ≥ 6.00 | ≥ 7.40
6 | O=C(N[C@H]1CC[C@H](N2CC[C@@H](F)C2)CC1)c1nc(-n2ccnc2)nc2ncccc12 [Example 58, N-((1R,4r)-4-((R)-3-fluoropyrrolidin-1-yl)cyclohexyl)-2-(1H-imidazol-1-yl)pyrido[2,3-d]pyrimidine-4-carboxamide] | ≥ 7.00 | ≥ 7.40
7 | O=C(N[C@H]1CC[C@H](N2CC[C@H](F)C2)CC1)c1cn2nccc2c(-n2ccnc2)n1 [Example 36, N-((1S,4r)-4-((S)-3-fluoropyrrolidin-1-yl)cyclohexyl)-4-(1H-imidazol-1-yl)pyrazolo[1,5-a]pyrazine-6-carboxamide] | ≥ 7.00 | ≥ 7.40
8 | O=C(N[C@H]1CC[C@H](N2CC[C@@H](F)C2)CC1)c1cn2ncnc2c(-n2ccnc2)n1 [Example 26, N-((1R,4r)-4-((R)-3-fluoropyrrolidin-1-yl)cyclohexyl)-8-(1H-imidazol-1-yl)-[1,2,4]triazolo[1,5-a]pyrazine-6-carboxamide] | ≥ 7.00 | ≥ 7.40
9 | O=C(NC1CC2(CC(NCC(F)(F)F)C2)C1)c1nc(-n2ccnc2)nn2cccc12 (single isomer, unassigned) [Example 10, 2-(1H-imidazol-1-yl)-N-(6-((2,2,2-trifluoroethyl)amino)spiro[3.3]heptan-2-yl)pyrrolo[2,1-f][1,2,4]triazine-4-carboxamide] | ≥ 7.40 | ≥ 7.40
10 | O=C(N[C@H]1CC[C@H](N2CC(C(F)(F)F)C2)CC1)c1cn2ncnc2c(-n2ccnc2)n1 [Example 56, 8-(1H-imidazol-1-yl)-N-((1r,4r)-4-(3-(trifluoromethyl)azetidin-1-yl)cyclohexyl)-[1,2,4]triazolo[1,5-a]pyrazine-6-carboxamide] | ≥ 7.00 | ≥ 7.40
11 | O=C(NC1CCOCC1)c1nc(-n2ccnc2)nc2ncccc12 [Example 3, 2-(1H-imidazol-1-yl)-N-(tetrahydro-2H-pyran-4-yl)pyrido[2,3-d]pyrimidine-4-carboxamide] | ≥ 7.40 | ≥ 7.40
12 | CC(F)(F)CN[C@H]1CC[C@H](NC(=O)c2cn3ncnc3c(-n3ccnc3)n2)CC1 [Example 57, N-((1r,4r)-4-((2,2-difluoropropyl)amino)cyclohexyl)-8-(1H-imidazol-1-yl)-[1,2,4]triazolo[1,5-a]pyrazine-6-carboxamide] | ≥ 6.00 | ≥ 7.40
13 | O=C(N[C@H]1CC[C@H](N2CC[C@@H](F)C2)CC1)c1cn2nccc2c(-n2ccnc2)n1 [Example 35, N-((1R,4r)-4-((R)-3-fluoropyrrolidin-1-yl)cyclohexyl)-4-(1H-imidazol-1-yl)pyrazolo[1,5-a]pyrazine-6-carboxamide] | ≥ 7.00 | ≥ 7.40
14 | CC1(F)CN([C@H]2CC[C@H](NC(=O)c3cn4ncnc4c(-n4ccnc4)n3)CC2)C1 [Example 46, N-((1r,4r)-4-(3-fluoro-3-methylazetidin-1-yl)cyclohexyl)-8-(1H-imidazol-1-yl)-[1,2,4]triazolo[1,5-a]pyrazine-6-carboxamide] | ≥ 7.00 | ≥ 7.40
15 | O=C(N[C@H]1CC[C@H](NCC(F)(F)F)CC1)c1nc(-c2cncn2CCO)nn2cccc12 [Example 18, 2-(1-(2-hydroxyethyl)-1H-imidazol-5-yl)-N-((1r,4r)-4-((2,2,2-trifluoroethyl)amino)cyclohexyl)pyrrolo[2,1-f][1,2,4]triazine-4-carboxamide] | ≥ 7.40 | ≥ 7.40
16 | O=C(N[C@H]1CC[C@H](N2CCC(F)(F)C2)CC1)c1cn2nccc2c(-n2ccnc2)n1 [Example 34, N-((1r,4r)-4-(3,3-difluoropyrrolidin-1-yl)cyclohexyl)-4-(1H-imidazol-1-yl)pyrazolo[1,5-a]pyrazine-6-carboxamide] | ≥ 6.00 | 
17 | O=C(N[C@H]1CC[C@H](N2CC[C@@H](F)C2)CC1)c1cn2ccnc2c(-n2ccnc2)n1 [Example 39, N-((1R,4r)-4-((R)-3-fluoropyrrolidin-1-yl)cyclohexyl)-8-(1H-imidazol-1-yl) imidazo[1,2-a]pyrazine-6-carboxamide] | ≥ 7.00 | ≥ 7.40
18 | O=C(N[C@H]1CC[C@H](NCC(F)(F)F)CC1)c1cc2cccnc2c(-n2ccnc2)n1 [Example 6, 8-(1H-imidazol-1-yl)-N-((1r,4r)-4-((2,2,2-trifluoroethyl)amino)cyclohexyl)-1,7-naphthyridine-6-carboxamide] | ≥ 5.00 | 
19 | O=C(N[C@H]1CC[C@H](N2CCOCC2)CC1)c1cn2ncnc2c(-n2ccnc2)n1 [Example 49, 8-(1H-imidazol-1-yl)-N-((1r,4r)-4-morpholinocyclohexyl)-[1,2,4]triazolo[1,5-a]pyrazine-6-carboxamide] | ≥ 6.00 | 
20 | O=C(N[C@H]1CC[C@H](NCC(F)(F)F)CC1)c1cc2ncnn2c(-n2ccnc2)n1 [Example 60, 5-(1H-imidazol-1-yl)-N-((1r,4r)-4-((2,2,2-trifluoroethyl)amino)cyclohexyl)-[1,2,4]triazolo[1,5-c]pyrimidine-7-carboxamide] | ≥ 6.00 | 
21 | O=C(NC1CCC2(CC1)CN(CC(F)(F)F)C2)c1nc(-n2ccnc2)nn2cccc12 [Example 8, 2-(1H-imidazol-1-yl)-N-(2-(2,2,2-trifluoroethyl)-2-azaspiro[3.5]nonan-7-yl)pyrrolo[2,1-f][1,2,4]triazine-4-carboxamide] | ≥ 7.40 | ≥ 7.40
22 | O=C(N[C@H]1CC[C@H](NCC(F)(F)F)CC1)c1nc(-n2ccnc2)cn2ncnc12 [Example 59, 6-(1H-imidazol-1-yl)-N-((1r,4r)-4-((2,2,2-trifluoroethyl)amino)cyclohexyl)-[1,2,4]triazolo[1,5-a]pyrazine-8-carboxamide] | ≥ 7.40 | ≥ 7.40
23 | O=C(N[C@H]1CC[C@H](N2CCCC2)CC1)c1nc(-n2ccnc2)nn2cccc12 [Example 43, 2-(1H-imidazol-1-yl)-N-((1r,4r)-4-(pyrrolidin-1-yl)cyclohexyl)pyrrolo[2,1-f][1,2,4]triazine-4-carboxamide] | ≥ 7.40 | 
